Test results taken from US9133183B2, “Imidazolidinones and analogs exhibiting anti-cancer and anti-proliferative activities” (Deciphera Pharmaceuticals, LLC, priority 2013, dated 2015).
Read-outs that look alike come from different tables or passages of the source.

Experiments:
[1] = target: c-FMS kinase in THP-1 cells (Homo sapiens (Human), UniProt P07333); assay: Phospho-FMS ELISA assay in THP-1 cells; format: cell-based; conditions: 4 h compound, M-CSF stimulation 5 min; read-out: pFMS inhibition in THP-1 cells
Sequence of c-FMS kinase in THP-1 cells (P07333 20-972): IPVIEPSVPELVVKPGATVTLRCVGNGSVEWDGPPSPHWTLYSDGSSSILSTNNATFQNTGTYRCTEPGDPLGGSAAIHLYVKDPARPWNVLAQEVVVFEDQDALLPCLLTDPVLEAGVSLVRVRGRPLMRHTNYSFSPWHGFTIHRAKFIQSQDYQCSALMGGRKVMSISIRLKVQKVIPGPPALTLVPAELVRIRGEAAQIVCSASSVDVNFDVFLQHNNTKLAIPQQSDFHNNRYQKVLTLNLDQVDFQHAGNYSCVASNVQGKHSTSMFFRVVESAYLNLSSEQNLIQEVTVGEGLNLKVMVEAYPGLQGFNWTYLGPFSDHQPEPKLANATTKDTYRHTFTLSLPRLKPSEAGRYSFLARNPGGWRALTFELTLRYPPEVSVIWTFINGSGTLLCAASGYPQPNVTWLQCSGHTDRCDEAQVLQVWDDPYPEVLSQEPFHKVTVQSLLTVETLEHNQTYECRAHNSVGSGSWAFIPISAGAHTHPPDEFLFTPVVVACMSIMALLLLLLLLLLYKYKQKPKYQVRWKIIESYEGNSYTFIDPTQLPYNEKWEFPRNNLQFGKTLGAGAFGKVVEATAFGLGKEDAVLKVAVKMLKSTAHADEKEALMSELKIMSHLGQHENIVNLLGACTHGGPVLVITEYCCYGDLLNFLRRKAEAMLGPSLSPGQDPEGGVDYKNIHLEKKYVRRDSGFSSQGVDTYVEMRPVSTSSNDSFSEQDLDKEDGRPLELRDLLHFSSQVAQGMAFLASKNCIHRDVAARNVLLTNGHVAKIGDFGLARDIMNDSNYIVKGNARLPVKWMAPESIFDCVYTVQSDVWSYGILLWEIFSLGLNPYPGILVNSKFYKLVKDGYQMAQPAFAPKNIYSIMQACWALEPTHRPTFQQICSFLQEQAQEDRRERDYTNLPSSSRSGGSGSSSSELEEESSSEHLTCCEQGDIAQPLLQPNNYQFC

[2] = tested on: M-NFS-60 cells; assay: M-NFS-60 cell proliferation assay (resazurin); format: cell-based; conditions: 67 h incubation
Method in brief: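 Cells kept in medium containing 20 ng/mL mouse recombinant M-CSF. Fluorescence was read at ex 540/em 600 nm, and IC50 was fitted from percent inhibition across a range of inhibitor concentrations.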

[3] = target: unphosphorylated c-KIT kinase (uKIT, Seq. ID no. 2) (Homo sapiens (Human), UniProt P10721); assay: uKit kinase assay (coupled pyruvate kinase/lactate dehydrogenase); format: biochemical; conditions: enzymatic assay, ATP 2000 μM
Sequence of unphosphorylated c-KIT kinase (uKIT, Seq. ID no. 2) (P10721 other isoform, or with tags, fused parts or gaps): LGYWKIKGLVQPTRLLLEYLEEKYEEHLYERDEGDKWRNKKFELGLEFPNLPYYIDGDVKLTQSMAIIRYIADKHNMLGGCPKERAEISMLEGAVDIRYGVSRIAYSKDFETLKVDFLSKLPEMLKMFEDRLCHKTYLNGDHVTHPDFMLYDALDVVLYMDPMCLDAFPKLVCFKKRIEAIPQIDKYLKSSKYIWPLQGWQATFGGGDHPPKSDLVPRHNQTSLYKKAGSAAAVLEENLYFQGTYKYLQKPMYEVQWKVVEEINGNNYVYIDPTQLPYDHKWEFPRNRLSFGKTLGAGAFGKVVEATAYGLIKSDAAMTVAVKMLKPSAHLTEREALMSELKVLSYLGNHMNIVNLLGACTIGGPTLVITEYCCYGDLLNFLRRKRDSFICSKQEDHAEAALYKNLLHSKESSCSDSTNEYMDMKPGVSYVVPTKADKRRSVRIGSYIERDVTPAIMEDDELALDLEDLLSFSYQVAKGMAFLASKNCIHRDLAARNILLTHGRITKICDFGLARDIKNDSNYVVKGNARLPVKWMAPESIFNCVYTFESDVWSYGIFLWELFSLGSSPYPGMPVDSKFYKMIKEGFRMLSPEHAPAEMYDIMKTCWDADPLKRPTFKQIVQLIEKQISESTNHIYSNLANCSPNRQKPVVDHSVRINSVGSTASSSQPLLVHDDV
Method in brief: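 The read-out was a continuous PK/LDH-coupled decrease in NADH absorbance at 340 nm, monitored at 30 °C over 4 h. IC50 came from % inhibition based on rates at 3–4 h. The GST-tagged unphosphorylated KIT (12 nM) was used with polyE4Y substrate, 2000 μM ATP and 10 mM Mg2+ at pH 7.5, with serially diluted compound.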

[4] = tested on: osteoclast precursors; assay: Osteoclast tartrate-resistant acid phosphatase assay; format: cell-based; conditions: Osteoclast, 7-14 days, RANKL and M-CSF
[5] = target: unphosphorylated c-FMS kinase (uFMS, Seq. ID no. 1) (Homo sapiens (Human), UniProt P07333); assay: uFMS kinase assay (ADP production coupled to pyruvate kinase/lactate dehydrogenase); format: biochemical
Sequence of unphosphorylated c-FMS kinase (uFMS, Seq. ID no. 1) (P07333 538-972): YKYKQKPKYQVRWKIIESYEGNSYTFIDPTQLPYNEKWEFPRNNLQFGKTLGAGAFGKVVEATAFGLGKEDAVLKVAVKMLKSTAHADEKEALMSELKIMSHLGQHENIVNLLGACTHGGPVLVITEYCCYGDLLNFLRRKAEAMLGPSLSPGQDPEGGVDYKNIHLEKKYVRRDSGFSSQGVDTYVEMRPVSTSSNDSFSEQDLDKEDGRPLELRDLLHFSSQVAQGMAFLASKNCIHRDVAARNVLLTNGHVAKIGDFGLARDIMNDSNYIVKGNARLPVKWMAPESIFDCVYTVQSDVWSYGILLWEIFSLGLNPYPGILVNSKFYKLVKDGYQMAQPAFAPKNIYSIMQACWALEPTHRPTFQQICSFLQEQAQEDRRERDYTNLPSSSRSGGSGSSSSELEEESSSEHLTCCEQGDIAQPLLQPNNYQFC
Method in brief: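 Unphosphorylated FMS (10 nM) with polyE4Y 1 mg/mL and 500 μM ATP in 90 mM Tris pH 7.5, 10 mM MgCl2, 0.2% octyl-glucoside, 1% DMSO. ADP formation was coupled via pyruvate kinase/LDH to NADH oxidation, followed at A340 for 4 h at 30° C.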

[6] = enzymatic assay, ATP 500 μM, read-out: uFMS

SMILES | IC50 [1] [µM] | IC50 [2] [µM] | IC50 [3] [µM] | IC50 [4] [µM] | IC50 [5, 6] [µM] | IC50 ([5]; Table 4, read-out: c-FMS IC50) [µM]
CCc1nc(NC(=O)N2CCN(C3CCCC3)C2=O)ccc1Oc1ccnc(-c2cnn(C)c2)c1 [Example 57, 3-cyclopentyl-N-(6-ethyl-5-((2-(1-methyl-1H-pyrazol-4-yl)pyridin-4-yl)oxy)pyridin-2-yl)-2-oxoimidazolidine-1-carboxamide] | 0.01 to 0.1 | < 0.01 | > 1 | 0.01 to 0.1 | < 0.01 | 
Cc1nc(NC(=O)N2CCN(C3CCOCC3)C2=O)ccc1Oc1ccnc(-c2cnn(C)c2)c1 [Example 3, N-(6-methyl-5-((2-(1-methyl-1H-pyrazol-4-yl)pyridin-4-yl)oxy)pyridin-2-yl)-2-oxo-3-(tetrahydro-2H-pyran-4-yl)imidazolidine-1-carboxamide] | 0.01 to 0.1 | 0.01 to 0.1 | 0.1 to 1 | 0.01 to 0.1 | < 0.01 | 
CCN1CCN(C(=O)Nc2ccc(Oc3ccnc(-c4ccnc(C)c4)c3)c(C)n2)C1=O [Example 118, 3-ethyl-N-(6-methyl-5-((2′-methyl-[2,4′-bipyridin]-4-yl)oxy)pyridin-2-yl)-2-oxoimidazolidine-1-carboxamide] | 0.01 to 0.1 | 0.01 to 0.1 | > 1 | 0.01 to 0.1 | 0.01 to 0.1 | 
Cc1ccc(-c2cc(Oc3ccc(NC(=O)N4CCN(C5CCOCC5)C4=O)nc3C)ccn2)cn1 [Example 54, N-(6-methyl-5-((6′-methyl-[2,3′-bipyridin]-4-yl)oxy)pyridin-2-yl)-2-oxo-3-(tetrahydro-2H-pyran-4-yl)imidazolidine-1-carboxamide] | 0.1 to 1 | 0.01 to 0.1 | 0.1 to 1 | 0.01 to 0.1 | 0.01 to 0.1 | 
Cc1nc(NC(=O)N2CCN(C3CCC(F)(F)CC3)C2=O)ccc1Oc1ccnc(-c2cnn(C)c2)c1 [Example 26, 3-(4,4-difluorocyclohexyl)-N-(6-methyl-5-((2-(1-methyl-1H-pyrazol-4-yl)pyridin-4-yl)oxy)pyridin-2-yl)-2-oxoimidazolidine-1-carboxamide] | 0.01 to 0.1 | < 0.01 | 0.01 to 0.1 | 0.01 to 0.1 | < 0.01 | 
Cc1nc(NC(=O)N2CCN(C(C)(C)C)C2=O)ccc1Oc1ccnc(-c2cnn(C)c2)c1 [Example 33, 3-(tert-butyl)-N-(6-methyl-5-((2-(1-methyl-1H-pyrazol-4-yl)pyridin-4-yl)oxy)pyridin-2-yl)-2-oxoimidazolidine-1-carboxamide] | < 0.01 | 0.01 to 0.1 | < 0.01 | 0.01 to 0.1 | < 0.01 | 
Cn1cc(-c2cc(Oc3ccc(NC(=O)N4CCN(C5CCOC5)C4=O)nc3)ccn2)cn1 (stereo in doubt) [Example 12, (S)—N-(5-((2-(1-methyl-1H-pyrazol-4-yl)pyridin-4-yl)oxy)pyridin-2-yl)-2-oxo-3-(tetrahydrofuran-3-yl)imidazolidine-1-carboxamide] | 0.01 to 0.1 | 0.01 to 0.1 | 0.01 to 0.1 | < 0.01 | 0.01 to 0.1 | 
Cc1cc(-c2cc(Oc3ccc(NC(=O)N4CCN(C5CCOCC5)C4=O)nc3)ccn2)on1 [Example 7, N-(5-((2-(3-methylisoxazol-5-yl)pyridin-4-yl)oxy)pyridin-2-yl)-2-oxo-3-(tetrahydro-2H-pyran-4-yl)imidazolidine-1-carboxamide] | 0.01 to 0.1 | 0.01 to 0.1 | 0.01 to 0.1 | 0.01 to 0.1 | 0.01 to 0.1 | 
CC(=O)Nc1cc(Oc2ccc(NC(=O)N3CCN(C4CCOCC4)C3=O)nc2)ccn1 [Example 119, N-(5-((2-acetamidopyridin-4-yl)oxy)pyridin-2-yl)-2-oxo-3-(tetrahydro-2H-pyran-4-yl)imidazolidine-1-carboxamide] | 0.01 to 0.1 | 0.01 to 0.1 | 0.1 to 1 | 0.01 to 0.1 | 0.01 to 0.1 | 
Cc1cc(NC(=O)N2CCN(C)C2=O)ncc1Oc1ccnc(-c2cnn(C)c2)c1 [Example 85, 3-methyl-N-(4-methyl-5-((2-(1-methyl-1H-pyrazol-4-yl)pyridin-4-yl)oxy)pyridin-2-yl)-2-oxoimidazolidine-1-carboxamide] | 0.01 to 0.1 | 0.01 to 0.1 | 0.01 to 0.1 | < 0.01 | < 0.01 | 
CCc1nc(NC(=O)N2CCN(C3CCOCC3)C2=O)ccc1Oc1ccnc(-c2cnn(C)c2)c1 [Example 49, N-(6-ethyl-5-((2-(1-methyl-1H-pyrazol-4-yl)pyridin-4-yl)oxy)pyridin-2-yl)-2-oxo-3-(tetrahydro-2H-pyran-4-yl)imidazolidine-1-carboxamide] | 0.1 to 1 | 0.1 to 1 | > 1 | 0.01 to 0.1 | 0.01 to 0.1 | 
Cc1nc(NC(=O)N2CCN(C(C)C)C2=O)ccc1Oc1ccnc(-c2cnn(C)c2)c1 [Example 35, 3-isopropyl-N-(6-methyl-5-((2-(1-methyl-1H-pyrazol-4-yl)pyridin-4-yl)oxy)pyridin-2-yl)-2-oxoimidazolidine-1-carboxamide] | < 0.01 | 0.01 to 0.1 | 0.1 to 1 | < 0.01 | < 0.01 | 
COCCN1CCN(C(=O)Nc2ccc(Oc3ccnc(-c4cnn(C)c4)c3)cn2)C1=O [Example 10, 3-(2-methoxyethyl)-N-(5-((2-(1-methyl-11H-pyrazol-4-yl)pyridin-4-yl)oxy)pyridin-2-yl)-2-oxoimidazolidine-1-carboxamide] | < 0.01 | 0.01 to 0.1 | 0.1 to 1 | 0.01 to 0.1 | 0.01 to 0.1 | 
COCCN1CCN(C(=O)Nc2ccc(Oc3ccnc(-c4cnn(C)c4)c3)c(C)n2)C1=O [Example 18, 3-(2-methoxyethyl)-N-(6-methyl-5-((2-(1-methyl-1H-pyrazol-4-yl)pyridin-4-yl)oxy)pyridin-2-yl)-2-oxoimidazolidine-1-carboxamide] | 0.01 to 0.1 | 0.1 to 1 | 0.1 to 1 | 0.01 to 0.1 | 0.01 to 0.1 | 0.02
CCN1CCN(C(=O)Nc2cc(C)c(Oc3ccnc(-n4cnc(C)c4)c3)cn2)C1=O [Example 88, 3-ethyl-N-(4-methyl-5-((2-(4-methyl-1H-imidazol-1-yl)pyridin-4-yl)oxy)pyridin-2-yl)-2-oxoimidazolidine-1-carboxamide] | 0.01 to 0.1 | 0.01 to 0.1 | 0.1 to 1 | 0.01 to 0.1 | 0.01 to 0.1 | 
CCN1CCN(C(=O)Nc2ccc(Oc3ccnc(-c4cnc(C)o4)c3)cn2)C1=O [Example 117, 3-ethyl-N-(5-((2-(2-methyloxazol-5-yl)pyridin-4-yl)oxy)pyridin-2-yl)-2-oxoimidazolidine-1-carboxamide] | 0.01 to 0.1 | 0.1 to 1 | 0.1 to 1 | 0.01 to 0.1 | 0.1 to 1 | 
Cn1cc(-c2cc(Oc3ccc(NC(=O)N4CCN(C5CCOCC5)C4=O)nc3)ccn2)cn1 [Example 1, N-(5-((2-(1-methyl-1H-pyrazol-4-yl)pyridin-4-yl)oxy)pyridin-2-yl)-2-oxo-3-(tetrahydro-2H-pyran-4-yl)imidazolidine-1-carboxamide] | 0.01 to 0.1 | 0.01 to 0.1 | 0.01 to 0.1 | 0.01 to 0.1 | < 0.01 | 0.006
Cc1nc(NC(=O)N2CCN(C3CCCC3)C2=O)ccc1Oc1ccnc(-c2cnn(C)c2)c1 [Example 29, 3-cyclopentyl-N-(6-methyl-5-((2-(1-methyl-1H-pyrazol-4-yl)pyridin-4-yl)oxy)pyridin-2-yl)-2-oxoimidazolidine-1-carboxamide] | 0.01 to 0.1 | < 0.01 | < 0.01 | < 0.01 | < 0.01 | 0.002
